System: SCI-induced oedema
Test: Example 3: spinal cord water content with aquaporin-4 relocalisation inhibitors
Details: in vivo
Experimental: The lesion site+3 mm either side for mice and the lesion site+5 mm either side for the rat DC model were dissected out and the water content of the spinal cord (as a measure of oedema) was determined at 3 days after DC and CC SCI, as described previously (S. Li, C. H. Tator, Effects of MK801 on evoked potentials, spinal cord blood flow and cord edema in acute spinal cord injury in rats. Spinal Cord 37, 820-832 (1999)). Spinal cords containing the lesion site were weighed on aluminium foil, dried at 105° C. for 24 hr, and re-weighed. The percent water content was calculated as: water content (%)=[(wet weight-dry weight)/wet weight]×100%.
Using similar techniques to those described in Example 1, the water content in the spinal cord as a measure of injury-induced oedema was determined for various agents and aquaporin-4 inhibitors, namely TFP, PKAi, PKCi and TGN-020—see FIG. 21.

## O=C(Nc1nncs1)c1cccnc1 [TGN-020, N-1,3,4-Thiadiazol-2-yl-3-pyridinecarboxamide]
  SCI-induced oedema, water content (FIG. 21): suppress SCI-induced oedema

Reference: US20230255943A1, “MMP-9 AND MMP-12 INHIBITION FOR TREATING SPINAL CORD INJURY OR RELATED INJURY TO NEUROLOGICAL TISSUE” (The University of Birmingham, priority 2020, published 2023)
